Results published in EPA's ToxValDB 9.5.

Tested on: Rattus norvegicus
Settings: short-term, duration: 28 days, oral, gavage, Sprague-Dawley

Question: How did the LOEL (F, Clinical chemistry_Alanine aminotransferase) turn out when `O=C(O)C(F)(F)C(F)(F)C(F)(F)C(F)(F)C(F)(F)C(F)(F)C(F)(F)C(F)(F)C(F)(F)F` [Perfluorodecanoic acid] was run?
Answer: 1.25 mg/kg-day

Question: What about the NOEL (F, Clinical chemistry_Albumin) of the same compound?
Answer: 2.5 mg/kg-day

Question: What about the LOEL (F, Clinical chemistry_Albumin/globulin ratio) of the same compound?
Answer: 0.312 mg/kg-day

Question: And the LOEL (F, Clinical chemistry_Alkaline phosphatase)?
Answer: 0.312 mg/kg-day

Question: And the LOEL (F, Clinical chemistry_Aspartate aminotransferase)?
Answer: 1.25 mg/kg-day

Question: What about the LOEL (F, Clinical chemistry_Cholesterol) of the same compound?
Answer: 2.5 mg/kg-day

Question: And the LOEL (F, Clinical chemistry_Creatinine kinase)?
Answer: 1.25 mg/kg-day

Question: What about the LOEL (F, Clinical chemistry_Direct bilirubin) of the same compound?
Answer: 1.25 mg/kg-day

Question: And the LOEL (F, Clinical chemistry_Free thyroxine)?
Answer: 1.25 mg/kg-day

Question: What about the LOEL (F, Clinical chemistry_Globulin) of the same compound?
Answer: 0.312 mg/kg-day

Question: What about the LOEL (F, Clinical chemistry_Indirect bilirubin) of the same compound?
Answer: 2.5 mg/kg-day

Question: And the LOEL (F, Clinical chemistry_Sorbitol dehydrogenase)?
Answer: 2.5 mg/kg-day

Question: And the LOEL (F, Clinical chemistry_Testosterone)?
Answer: 0.312 mg/kg-day

Question: What about the NOEL (F, Clinical chemistry_Thyroid stimulating hormone) of the same compound?
Answer: 2.5 mg/kg-day

Question: And the LOEL (F, Clinical chemistry_Total bile acids)?
Answer: 1.25 mg/kg-day

Question: What about the LOEL (F, Clinical chemistry_Total bilirubin) of the same compound?
Answer: 1.25 mg/kg-day

Question: And the NOEL (F, Clinical chemistry_Total protein)?
Answer: 2.5 mg/kg-day

Question: And the NOEL (F, Clinical chemistry_Total thyroxine)?
Answer: 2.5 mg/kg-day

Question: And the LOEL (F, Clinical chemistry_Total triiodothyronine)?
Answer: 1.25 mg/kg-day

Question: What about the NOEL (F, Clinical chemistry_Triglycerides) of the same compound?
Answer: 2.5 mg/kg-day

Question: And the LOEL (F, Gene expression_Acox1)?
Answer: 0.156 mg/kg-day

Question: And the LOEL (F, Gene expression_Cyp2b1)?
Answer: 0.156 mg/kg-day

Question: And the LOEL (F, Gene expression_Cyp2b2)?
Answer: 0.156 mg/kg-day

Question: And the LOEL (F, Gene expression_Cyp4a1)?
Answer: 0.625 mg/kg-day

Question: What about the LOEL (F, Hematology_Erythrocytes) of the same compound?
Answer: 1.25 mg/kg-day

Question: And the LOEL (F, Hematology_Hematocrit)?
Answer: 1.25 mg/kg-day

Question: What about the LOEL (F, Hematology_Hemoglobin) of the same compound?
Answer: 1.25 mg/kg-day

Question: What about the LOEL (F, Hematology_Mean corpuscular hemoglobin concentration) of the same compound?
Answer: 2.5 mg/kg-day

Question: And the LOEL (F, Hematology_Mean corpuscular volume)?
Answer: 1.25 mg/kg-day

Question: And the LOEL (F, Hematology_Platelets)?
Answer: 2.5 mg/kg-day

Question: And the LOEL (F, Hematology_Reticulocytes)?
Answer: 1.25 mg/kg-day

Question: What about the LOEL (F, Nonneoplastic effects_Bone marrow - Hypocellularity) of the same compound?
Answer: 2.5 mg/kg-day

Question: What about the NOEL (F, Nonneoplastic effects_Forestomach - Epithelium, hyperplasia) of the same compound?
Answer: 2.5 mg/kg-day

Question: And the NOEL (F, Nonneoplastic effects_Forestomach - Inflammation, chronic active)?
Answer: 2.5 mg/kg-day

Question: And the NOEL (F, Nonneoplastic effects_Kidney - Nephropathy, chronic progressive)?
Answer: 2.5 mg/kg-day

Question: What about the LOEL (F, Nonneoplastic effects_Liver - Hepatocyte, Necrosis) of the same compound?
Answer: 2.5 mg/kg-day

Question: And the LOEL (F, Nonneoplastic effects_Liver - Hepatocyte, cytoplasmic alteration)?
Answer: 0.625 mg/kg-day

Question: What about the LOEL (F, Nonneoplastic effects_Liver - Hepatocyte, hypertrophy) of the same compound?
Answer: 1.25 mg/kg-day

Question: What about the LOEL (F, Nonneoplastic effects_Liver - Hepatocyte, vacuolization cytoplasmic) of the same compound?
Answer: 2.5 mg/kg-day

Question: What about the NOEL (F, Nonneoplastic effects_Lymph nodes - Mandibular, atrophy) of the same compound?
Answer: 2.5 mg/kg-day

Question: What about the NOEL (F, Nonneoplastic effects_Lymph nodes - Mesenteric, atrophy) of the same compound?
Answer: 2.5 mg/kg-day

Question: And the NOEL (F, Nonneoplastic effects_Nose - Olfactory epithelium, degeneration)?
Answer: 2.5 mg/kg-day

Question: What about the NOEL (F, Nonneoplastic effects_Nose - Olfactory epithelium, hyperplasia) of the same compound?
Answer: 2.5 mg/kg-day

Question: What about the NOEL (F, Nonneoplastic effects_Nose - Olfactory epithelium, inflammation, suppurative) of the same compound?
Answer: 2.5 mg/kg-day

Question: What about the NOEL (F, Nonneoplastic effects_Nose - Respiratory epithelium, hyperplasia) of the same compound?
Answer: 2.5 mg/kg-day

Question: And the NOEL (F, Nonneoplastic effects_Nose - Respiratory epithelium, inflammation, chronic active)?
Answer: 2.5 mg/kg-day

Question: What about the NOEL (F, Nonneoplastic effects_Spleen - Atrophy) of the same compound?
Answer: 2.5 mg/kg-day

Question: What about the NOEL (F, Nonneoplastic effects_Spleen - Extramedullary hematopoiesis, increased) of the same compound?
Answer: 2.5 mg/kg-day

Question: And the LOEL (F, Nonneoplastic effects_Thymus - Atrophy)?
Answer: 2.5 mg/kg-day

Question: And the NOEL (F, Nonneoplastic effects_Thymus - Lymphocyte, apoptosis)?
Answer: 2.5 mg/kg-day

Question: And the NOEL (F, Nonneoplastic effects_Thyroid gland - Follicular cell hypertrophy)?
Answer: 2.5 mg/kg-day

Question: And the LOEL (F, Organ weights_Liver - Absolute)?
Answer: 0.156 mg/kg-day

Question: What about the LOEL (F, Organ weights_Liver - Relative) of the same compound?
Answer: 0.156 mg/kg-day

Question: And the LOEL (F, Organ weights_R. adrenal gland - Absolute)?
Answer: 2.5 mg/kg-day

Question: And the NOEL (F, Organ weights_R. adrenal gland - Relative)?
Answer: 2.5 mg/kg-day

Question: And the LOEL (F, Organ weights_R. kidney - Absolute)?
Answer: 2.5 mg/kg-day

Question: And the LOEL (F, Organ weights_R. kidney - Relative)?
Answer: 0.625 mg/kg-day

Question: And the LOEL (F, Organ weights_Spleen - Absolute)?
Answer: 1.25 mg/kg-day

Question: And the LOEL (F, Organ weights_Spleen - Relative)?
Answer: 0.625 mg/kg-day

Question: And the LOEL (F, Organ weights_Thymus - Absolute)?
Answer: 2.5 mg/kg-day

Question: And the LOEL (F, Organ weights_Thymus - Relative)?
Answer: 2.5 mg/kg-day

Question: What about the LOEL (F, Organ weights_Thyroid gland - Absolute) of the same compound?
Answer: 0.312 mg/kg-day

Question: And the LOEL (F, Organ weights_Thyroid gland - Relative)?
Answer: 0.312 mg/kg-day

Question: What about the LOEL (F, Reproductive toxicity_Altered estrous cyclicity) of the same compound?
Answer: 1.25 mg/kg-day

Question: And the NOEL (F, Survival rates)?
Answer: 2.5 mg/kg-day

Question: And the LOEL (F, body weight)?
Answer: 1.25 mg/kg-day

Question: What about the LOEL (M, Clinical chemistry_Alanine aminotransferase) of the same compound?
Answer: 0.312 mg/kg-day

Question: What about the LOEL (M, Clinical chemistry_Albumin) of the same compound?
Answer: 1.25 mg/kg-day

Question: And the LOEL (M, Clinical chemistry_Albumin/globulin ratio)?
Answer: 0.156 mg/kg-day

Question: What about the LOEL (M, Clinical chemistry_Alkaline phosphatase) of the same compound?
Answer: 0.312 mg/kg-day
